Data reported in patent US20090291064A1 (priority 2008, published 2009).
Read-outs that look alike come from different tables or passages of the source.

Experiments:
CYP 1A2 = system: CYP 1A2
Protocol: (§1) Several CYP450 enzymatic activities were investigated in PICM-19H cells to determine the presence and inducible nature of major CYP450 isoforms. […] Cells were washed with PBS and appropriate inducer medium was added for 48 h prior to experimentation.
(§2) CYP450 activity was assessed in T25 cultures of PICM-19H cells that were grown for 3 wk post-passage. T25 cultures of APH or HepG2 C3A cells were tested after 3 d of primary culture and at 1 wk post-passage or near confluency, respectively. […] After the initial induction, cells were washed and given a non-fluorescent substrate for CYP1A1, CYP1A2, CYP2, or CYP3A (7-ERF, 7-MRF, MFC, and BFC, respectively). […] Medium samples were collected, centrifuged to remove cell debris (14,000×g, 2 min) and frozen at −80° C. until analyzed. […] Briefly, samples were incubated at 37° C. with or without β-glucuronidase/arylsulphatase (15 Fishman/120 Roy units/ml, Roche Applied Sciences) in pH 4.5 acetate buffer for 2 h to release any fluorescent reaction product that had been conjugated via sulfation or glucurondation phase II conjugation reactions. Standard curves contained resorufin or 7-HFC were treated identically to the experimental medium samples. Fluorescence was determined in an HTS 7000 plate reader; excitation/emission filter pairs were 530/590 and 410/510 for resorufin and 7-HFC, respectively. To determine relative conjugation activity, fluorescence was also determined directly without incubating first in β-glucuronidase/arylsulphatase. Since conjugated forms of resorufin and 7-HFC are non-fluorescent, the difference between the direct and indirect fluorescence measurements represents the amount of product which had been modified by conjugating enzymes.

CYP1A1 = conditions: pig
Protocol: as §1, §2

CYP2 = system: CYP2
Protocol: as §1, §2

in vitro = conditions: pig, LC50, WST-1 viability

Row | Compound | induction of MROD activity (CYP 1A2; PICM-19H cells, 48 h with 5 μM 3-MC, vs non-induced) [fold] | increase in EROD activity (CYP1A1) [fold] | MFCD activity induction (in words) (CYP2; PICM-19H cells, 48 h with 1 mM PHB, 50 μM Rif or 5 μM 3-MC) | induction of BFCD activity (CYP3A; PICM-19H cells, 48 h with 5 μM 3-MC) [fold] | MROD activity (in words) (CYP 1A2) | MFCD activity induction (in words) (CYP2) | increase in BFCD activity compared to non-induced controls (CYP3A; pig) | toxicity in glutathione-depleted cells (PICM-19H cells) | CC50 (PICM-19H cells; pig) [mM] | CC50 (in vitro) [mM]
1 | Cc1ccc2cc3c(ccc4ccccc43)c3c2c1CC3 [3-MC, 3-methylcholanthrene] | 5.5 | 198 | equally induced | 5.8 |  |  |  |  |  | 
2 | CCC1(c2ccccc2)C(=O)NC(=O)NC1=O [PHB, phenobarbital] |  | 7 |  |  | low | equally induced | approximately 50% |  |  | 
3 | CC(=O)Nc1ccc(O)cc1 [acetaminophen] |  |  |  |  |  |  |  | enhanced | ~13 | 12.6 ± 0.75
